The values below come from patent US12215129B2, “Antibacterial cyclopeptides targeting acinetobacter and other gram-negative pathogens” (priority 2020, dated 2025).

Values joined by “and” are separate entries in the source; they are usually repeats but may differ in a detail not shown here. Equal values may be shown once. Read-outs that look alike come from different tables or passages of the source. Marks after values point to notes of the source that are not given here.

For data set [1] the following is noted: human, in vivo; cited from earlier work.
A further data set concerns A. baumannii ATCC 17978. Description: Thigh infection neutropenic mouse model, efficacy (CFU/thigh). Format: in vivo, Acinetobacter baumannii. The settings on record: 30 mg/kg SC, BID, q12h.
In data set [2] the test system is Acinetobacter baumannii (ATCC 19606).
In data set [3] the test system is clinical A. baumannii complex isolates.

As a reminder, the Vss is a proportionality between amount in the body and measured concentration, not a real space. As usually defined, the clearance is the rate of elimination divided by the concentration. On to `CCCCCCCCCC(=O)N[C@@H](Cc1c[nH]c2ccccc12)C(=O)N[C@H](CC(N)=O)C(=O)N[C@@H](CC(=O)O)C(=O)N[C@@H]1C(=O)NCC(=O)N[C@@H](CCCN)C(=O)N[C@@H](CC(=O)O)C(=O)N[C@H](C)C(=O)N[C@@H](CC(=O)O)C(=O)NCC(=O)N[C@H](CO)C(=O)N[C@@H]([C@H](C)CC(=O)O)C(=O)N[C@@H](CC(=O)c2ccccc2N)C(=O)O[C@@H]1C` [Daptomycin], for which, in data set [1], the “Half Life” value was around 8 h, the Vss is on record as around 0.1 L/kg and the clearance was around 0.15 mL/min/kg.
For orientation: MIC means the smallest concentration in the dilution series that meets the test's criterion for growth inhibition. A high value points to weaker potency. For Colistin [reference compound], the “Decrease (%)” value with A. baumannii ATCC 17978 (26 h, decrease in counts compared to the vehicle group) turned out to be 100%. Further, in the data set with A. baumannii ATCC 17978 (26 h, difference in bacterial counts relative to the baseline group (2 h initial counts)), the Δ is −2.73^#. In addition, in the data set with A. baumannii ATCC 17978 (26 h, individual animals), the “CFU/thigh Time post inoculation 2, 26 h” value was 1.77 × 10^3 CFU/thigh and 5.73 × 10^3 CFU/thigh and 5.64 × 10^3 CFU/thigh and 1.98 × 10^3 CFU/thigh and 3.57 × 10^3 CFU/thigh. Further, in the data set with A. baumannii ATCC 17978 (26 h, individual animals), the “Log (CFU/thigh) Time post inoculation 2, 26 h” value was 3.25 Log (CFU/thigh) and 3.76 Log (CFU/thigh) and 3.75 Log (CFU/thigh) and 3.30 Log (CFU/thigh) and 3.55 Log (CFU/thigh). Also, in the data set with A. baumannii ATCC 17978 (26 h, mean of 5 animals), the “CFU/thigh Time post inoculation 2, 26 h, Mean” value is reported as 3.74 × 10^3 CFU/thigh. For the same molecule, the “Log (CFU/thigh) Time post inoculation 2, 26 h, Mean” value in the data set on A. baumannii ATCC 17978 (26 h, mean of 5 animals) is 3.52* Log (CFU/thigh). In the data set on A. baumannii ATCC 17978 (raw data, dilution 0, individual animals), the “Dilution (CFU/plate) 0” value is 59 CFU/plate and 191 CFU/plate and 188 CFU/plate and 66 CFU/plate and 119 CFU/plate. In addition, the “Dilution (CFU/plate) 10^1” value in the data set with A. baumannii ATCC 17978 (raw data, dilution 10^1, individual animals) was 3 CFU/plate and 20 CFU/plate and 21 CFU/plate and 8 CFU/plate and 13 CFU/plate. Also, the “Dilution (CFU/plate) 10^2” value in the data set on A. baumannii ATCC 17978 (raw data, dilution 10^2, individual animals) is 0 CFU/plate (3×) and 1 CFU/plate (2×). Besides, the “Dilution (CFU/plate) 10^3” value in the data set on A. baumannii ATCC 17978 (raw data, dilution 10^3, individual animals) is reported as 0 CFU/plate. Besides, the MIC in data set [2] is 2 mg/L; in data set [3] (ARUP ABC 1), 4 mg/L; in data set [3] (ARUP ABC 2), 4 mg/L; in data set [3] (ARUP ABC 3), above 32 mg/L; in data set [3] (CDC AB282) it was 1 mg/L; in data set [3] (CDC AB286) it was 1 mg/L. Further, the MIC was 2 mg/L in data set [3] (CDC AB299), 2 mg/L in data set [3] (CDC AB302), above 32 mg/L in data set [3] (CDC AB303) and 8 mg/L in data set [3] (CDC AB307).
